Test results as given in paper PMC7465344 (Pharmaceuticals, 2020).

What was measured:
hA3 AR = biological target: T1, hA3 AR (Homo sapiens, UniProt P0DMS8); experiment: Competition binding of [125I]AB-MECA to hA3 AR in CHO cell membranes
T1 sequence (P0DMS8 1-318): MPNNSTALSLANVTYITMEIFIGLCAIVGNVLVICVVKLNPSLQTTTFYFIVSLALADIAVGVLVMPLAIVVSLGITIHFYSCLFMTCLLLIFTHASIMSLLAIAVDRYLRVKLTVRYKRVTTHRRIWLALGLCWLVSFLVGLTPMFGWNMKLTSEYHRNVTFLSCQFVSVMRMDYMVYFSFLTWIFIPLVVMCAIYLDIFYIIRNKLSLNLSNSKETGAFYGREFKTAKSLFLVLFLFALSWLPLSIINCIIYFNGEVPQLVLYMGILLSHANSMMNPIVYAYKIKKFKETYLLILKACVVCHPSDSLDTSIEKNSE
Procedure: (§1) For membrane preparation, the cells were washed with phosphate-buffered saline and scraped off T75 flasks in an ice-cold hypotonic buffer (5 mMTris-HCl, 1 mM EDTA, pH 7.4). The cell suspensions were homogenized with a Polytron, centrifuged for 30 min at 40,000× g at 4 °C and the resulting membrane pellets were used for competition binding experiments [44].
(§2) Non-specific binding was defined as binding in the presence of 1 μM DPCPX and was always <10% of the total binding [44]. […] Non-specific binding was defined as binding in the presence of 1 μM ABMECA and was always < 10% of the total binding [46]. Bound and free radioactivity were separated by filtering the assay mixture through Whatman GF/B glass fiber filters using a Brandel cell harvester (Brandel Instruments, Unterföhring, Germany).
(§3) The protein concentration was determined according to a Bio-Rad method with bovine albumin as a standard reference. […] Ki and IC50 values were calculated by the non-linear regression analysis using the equation for a sigmoid concentration-response curve (Graph-PAD Prism, San Diego, CA, USA).

hA2B AR = biological target: T2, hA2B AR (Homo sapiens, UniProt P29275); experiment: Inhibition of NECA stimulated adenylyl cyclase activity (cAMP assay) in CHO cells expressing hA2B receptor; format: cell-based; details: for inhibition at 10 µM: CHO, at 10 μM of tested compound, cAMP assay, read-out: hA2BAR percentage of inhibition (I%); for IC50: NECA stimulated cAMP, hA2B CHO cells, read-out: hA2BAR IC50 (potency in cAMP assay)
T2 construct: expressed in transfected cells; host or cells: CHO cells
T2 sequence (P29275 1-332): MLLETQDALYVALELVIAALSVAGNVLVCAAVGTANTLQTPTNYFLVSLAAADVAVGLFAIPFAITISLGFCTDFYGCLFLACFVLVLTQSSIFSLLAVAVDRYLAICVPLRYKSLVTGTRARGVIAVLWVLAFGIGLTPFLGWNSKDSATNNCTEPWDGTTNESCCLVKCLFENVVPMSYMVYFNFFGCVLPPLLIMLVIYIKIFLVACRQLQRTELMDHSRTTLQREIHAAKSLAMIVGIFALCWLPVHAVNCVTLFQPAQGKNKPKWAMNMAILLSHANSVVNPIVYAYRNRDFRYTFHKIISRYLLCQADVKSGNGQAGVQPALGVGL
Source text: At the end of the experiments, plates were read with the Perkin Elmer EnSight Multimode Plate Reader.

hA2A AR = hA2A AR (Homo sapiens, UniProt P29274); experiment: Competition binding of [3H]ZM241385 to hA2A AR in CHO cell membranes
Procedure: as §1, §2, §3

hA1 AR = biological target: T3, hA1 AR (Homo sapiens, UniProt P30542); experiment: Competition binding of [3H]DPCPX to hA1 AR in CHO cell membranes
T3 sequence (P30542 1-326): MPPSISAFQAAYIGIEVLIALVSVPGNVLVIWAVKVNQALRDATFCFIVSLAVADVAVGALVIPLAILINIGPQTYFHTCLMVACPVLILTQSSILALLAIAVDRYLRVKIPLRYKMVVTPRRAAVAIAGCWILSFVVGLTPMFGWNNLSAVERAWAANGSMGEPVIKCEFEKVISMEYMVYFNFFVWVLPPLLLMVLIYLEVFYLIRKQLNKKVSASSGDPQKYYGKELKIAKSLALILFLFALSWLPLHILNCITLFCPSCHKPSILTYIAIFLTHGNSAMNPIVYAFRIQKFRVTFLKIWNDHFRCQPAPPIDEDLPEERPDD
Procedure: as §1, §2, §3

hA2A AR, sequence (P29274 whole entry): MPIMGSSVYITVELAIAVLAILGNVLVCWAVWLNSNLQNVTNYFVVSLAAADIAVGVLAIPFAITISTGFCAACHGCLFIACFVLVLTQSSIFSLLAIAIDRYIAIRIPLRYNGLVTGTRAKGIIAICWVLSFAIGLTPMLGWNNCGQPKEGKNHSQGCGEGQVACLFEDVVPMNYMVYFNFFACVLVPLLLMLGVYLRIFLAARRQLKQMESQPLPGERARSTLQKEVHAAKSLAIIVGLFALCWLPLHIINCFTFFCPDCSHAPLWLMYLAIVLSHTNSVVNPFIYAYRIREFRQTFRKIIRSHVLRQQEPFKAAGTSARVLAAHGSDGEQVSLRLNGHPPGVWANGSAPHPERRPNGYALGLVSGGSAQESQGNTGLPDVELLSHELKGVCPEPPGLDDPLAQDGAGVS

SMILES | Ki (hA3 AR) [nM] | inhibition at 10 µM (hA2B AR) [%] | IC50 (hA2B AR) [nM] | melting point [°C] | Ki (hA2A AR) [nM] | Ki (hA1 AR) [nM] | hA1AR Ki (hA1 AR; displacement of [3H]DPCPX, CHO cells, mean ± SEM, n = 3–6) | inhibition at 10 µM (hA3 AR; read-out: hA3AR percentage of inhibition (I%)) [%]
Nc1nc(N2CCN(CCc3ccccc3)CC2)nc2sc(-c3ccco3)nc12 [compound 4, 2-(Furan-2-yl)-5-(4-phenethylpiperazin-1-yl)thiazolo[5,4-d]pyrimidin-7-amine] | 197 ± 16 | 11 | > 10000 | 203 to 204 | 237 ± 17 | 1210 ± 114 | – | –
Nc1nc(N2CCN(Cc3ccccc3)CC2)nc2sc(-c3ccco3)nc12 [compound 3, 5-(4-Benzylpiperazin-1-yl)-2-(furan-2-yl)thiazolo[5,4-d]pyrimidin-7-amine] | 868 ± 82 | 26 | – | 181 to 183 | 58 ± 5 | 180 ± 15 | good affinities | –
Nc1nc(N2CCN(C(=O)c3ccco3)CC2)nc2sc(-c3ccco3)nc12 [compound 6, (4-(7-Amino-2-(furan-2-yl)thiazolo[5,4-d]pyrimidin-5-yl)piperazin-1-yl)(furan-2-yl)methanone] | 816 ± 74 | 10 | > 10000 | 227 to 229 | 137 ± 11 | 2770 ± 249 | – | –
CN(C)CCN1CCN(c2nc(N)c3nc(-c4ccco4)sc3n2)CC1 [compound 7, 5-(4-(2-(Dimethylamino)ethyl)piperazin-1-yl)-2-(furan-2-yl)thiazolo[5,4-d]pyrimidin-7-amine] | > 10000 | 23 | > 10000 | 183 to 186 | 29 ± 3 | 345 ± 28 | – | 34
